Measured values taken from US20220023232A1, “USE OF CANNABINOIDS IN THE TREATMENT OF EPILEPSY” (GW Research Limited, priority 2019, published 2022).

How the values were obtained:
seizures [1] = conditions: rabbit, in vivo; cited from earlier work
seizures [2] = conditions: mice, after pro-convulsant drugs or an electric current; cited from earlier work
[3] = Solubility of drug substance in water; format: physicochemical
Description: Sesame oil was selected as an excipient to solubilize the drug substance.

seizures [4] = conditions: 200 mg/day, four adult patients; cited from earlier work
[5] = tested on: epilepsy associated with KCNT1 mutation (EIMFS); assay: Expanded access case study of highly purified CBD in a child with KCNT1 mutation associated EIMFS; format: in vivo, human
Procedure: The child was […] when they were enrolled in an expanded access compassionate use program for CBD. The patient was diagnosed with Epilepsy of Infancy with Migrating Focal Seizures (EIMFS).
This subject was treated with a highly purified extract of cannabidiol (CBD) obtained from a cannabis plant. Seizure frequency and severity was documented in seizure diaries at baseline (4-week pre-treatment period) and over the treatment period. At each visit quality of life changes, including mood, behaviour, and cognitive function were recorded in addition to global impression of change using a numerical scale.
The patient first presented with seizures on the first day of life. They experienced on average 14 seizures per day. The types of seizure that occurred were motor arrest; asymmetric tonic; clonic extremity movements, irregular breathing and cyanosis.
The patient had tried and failed seven different anti-epileptic drugs and at the time of treatment and continued on the ketogenic diet however their seizures remained refractory.
Pharmaceutical-grade plant-derived CBD oral solution was gradually titrated by 2 to 5 mg/kg increments up to a maximum dose of 25 mg/kg/day.
Laboratory testing for hematologic, liver, kidney function and concomitant AED levels was performed at baseline, and after every 4 weeks of CBD therapy.
The patient was treated for over three years and remains on treatment currently.

[6] = tested on: secondary generalized epilepsy; conditions: eight adult patients; cited from earlier work
seizures [7] = conditions: 200 mg/day, twelve institutionalized adult patients, open label; cited from earlier work
[8] = one patient, oral CBD up to 25 mg/kg/day

Structure (SMILES) | effect on convulsions (seizures [1]) | prevention of seizures (seizures [2]) | solubility in water [3] | seizure freedom (seizures [4]) | demeanour and developmental milestones (caregiver documented) ([5]; after 6 months of treatment) | reduction in overall seizure frequency ([5]; after 16 weeks of treatment, 25 mg/kg/day, one patient) | side effects at maximum dose ([5]; after 16 weeks, 25 mg/kg/day) | side effect on titration ([5]; initial 12 week period, CBD titrated too quickly) | overall seizure frequency increase compared to baseline ([5]; initial 12 weeks of treatment, maximum dose of 25 mg/kg/day not reached, one patient) | seizure severity ([5]; one patient) | reduction in Type C seizures (irregular breathing, cyanosis and clonic extremity movements) [5, 8] | reduction in Type D seizures (most severe, asymmetric tonic seizures) [5, 8] | number of patients with marked reduction of seizures [6] | control of seizures (seizures [7])
CCCCCc1cc(O)c2c(c1)OC(C)(C)[C@@H]1CCC(C)=C[C@@H]21 [THC, Tetrahydrocannabinol] | pro-convulsant |  |  |  |  |  |  |  |  |  |  |  |  | 
C=C(C)[C@@H]1CCC(C)=C[C@H]1c1c(O)cc(CCCCC)cc1O [CBD, Cannabidiol] |  | able to prevent seizures | insoluble in water | two of the four patients became seizure free | more interactive and had attained new milestones including babbling, smiling, and fixing | 12% | without side effects | somnolence | 13% | clinically meaningful reduction in seizure severity | 93% | 48% | 4 | ineffective
